This passage reports TGI and GI50 results from PubChem BioAssay (NCI).

Several values for one entry are separate records, joined by “and”; a condition that tells them apart may be missing. Equal values may be shown once.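 Five concentrations, 48 hours, 96-well plates. GI50 = concentration required for 50% inhibition of growth. TGI: total growth inhibition.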 Where a SMILES comes first, the peptide text is derived from it. [ ]: non-standard residue; d: D form. The star is where a group is joined. NMeF = CN[C@@H](Cc1ccccc1)C(=O)O; NMeV = CN[C@H](C(=O)O)C(C)C; Boc = CC(C)(C)OC(=O)*; OBn = c1ccc(CO*)cc1 A value given as a limit tells only on which side of the number the result lay.

Test systems include M19-MEL melanoma; HL-60(TB) leukemia; 786-0 renal; RXF 393 renal; LXFL 529 NSCLC; TK-10 renal; SK-MEL-28 melanoma; K-562 leukemia; SK-MEL-5 melanoma; SF-539 CNS.
Assay in all cases: NCI anticancer screen, dose series, 48 h

Regarding `CC(C)[C@@H](C(=O)N1CCC[C@H]1C(=O)OCc1ccccc1)N(C)C(=O)[C@H](C(C)C)N(C)C(=O)[C@H](Cc1ccccc1)N(C)C(=O)[C@H](NC(=O)OC(C)(C)C)C(C)C` (Boc-[dV][NMeF][NMeV][NMeV]P-OBn), the TGI with M19-MEL melanoma is above 100 µM; in the experiment on HL-60(TB) leukemia it was above 100 µM; in the experiment with 786-0 renal, above 100 µM; in the experiment on RXF 393 renal, > 50 µM and 65.3 µM; with LXFL 529 NSCLC it was above 100 µM; in the experiment with TK-10 renal it was above 100 µM. For the same compound, the TGI in the experiment with SK-MEL-28 melanoma, with K-562 leukemia, in the experiment with SK-MEL-5 melanoma and with SF-539 CNS was above 100 µM each time. The GI50 was 21.9 µM in the experiment on HL-60(TB) leukemia, 39.5 µM in the experiment with 786-0 renal, 22.4 µM in the experiment on RXF 393 renal and above 100 µM in the experiment with K-562 leukemia.
As to `COC(=O)C(Cc1ccccc1)NC(=O)Cn1ccnc1[N+](=O)[O-]` (configuration not stated), the TGI in the experiment on M19-MEL melanoma, with HL-60(TB) leukemia, in the experiment with 786-0 renal, in the experiment on RXF 393 renal, in the experiment on LXFL 529 NSCLC and in the experiment with TK-10 renal was above 100 µM each time. In addition, the TGI with SK-MEL-28 melanoma, with K-562 leukemia, in the experiment with SK-MEL-5 melanoma and in the experiment on SF-539 CNS was above 100 µM each time.
`CCC[CH2][Sn]1([CH2]CCC)[O]CC(CN2CCOCC2)[O]1` (configuration not stated): the GI50 in the experiment with M19-MEL melanoma is 3.99 µM; in the experiment with HL-60(TB) leukemia it was 1.17 µM; in the experiment on 786-0 renal, 2.63 µM; in the experiment on RXF 393 renal, 1.65 µM; in the experiment with LXFL 529 NSCLC, 1.11 µM; with TK-10 renal, 4.02 µM. The GI50 was 2.89 µM in the experiment on SK-MEL-28 melanoma, 2.43 µM in the experiment with K-562 leukemia, 5.4 µM in the experiment with SK-MEL-5 melanoma and 2.96 µM in the experiment with SF-539 CNS. The TGI with M19-MEL melanoma is 17.3 µM; in the experiment on HL-60(TB) leukemia it was 3.62 µM; in the experiment with 786-0 renal it was 7.39 µM; in the experiment on RXF 393 renal, 3.31 µM; with LXFL 529 NSCLC it was 2.47 µM; in the experiment on TK-10 renal, 12.1 µM. For the same compound, the TGI in the experiment on SK-MEL-28 melanoma is 11.3 µM; in the experiment with K-562 leukemia, 9.16 µM; in the experiment on SK-MEL-5 melanoma it was 18.2 µM; in the experiment on SF-539 CNS it was 8.59 µM.
As to `COC(=O)C1=C(CS(=O)c2ccc([N+](=O)[O-])cc2[N+](=O)[O-])ON(C)C1c1ccccc1` (configuration not stated), the TGI was above 100 µM in the experiment with M19-MEL melanoma; 24.2 µM in the experiment on HL-60(TB) leukemia; above 100 µM with 786-0 renal; above 80.7 µM in the experiment on RXF 393 renal; above 92.8 µM with LXFL 529 NSCLC; above 74.8 µM in the experiment with TK-10 renal. For the same compound, the TGI with SK-MEL-28 melanoma was above 100 µM; with K-562 leukemia, 34.5 µM; with SK-MEL-5 melanoma, above 100 µM; in the experiment on SF-539 CNS, 56.2 µM.
For `COc1ccccc1C(N)c1ccccc1` (configuration not stated), the TGI in the experiment on M19-MEL melanoma, in the experiment with HL-60(TB) leukemia, in the experiment with 786-0 renal, in the experiment on RXF 393 renal, in the experiment with LXFL 529 NSCLC and in the experiment on TK-10 renal was above 100 µM in each case. Besides, the TGI with SK-MEL-28 melanoma, with K-562 leukemia, with SK-MEL-5 melanoma and in the experiment on SF-539 CNS was above 100 µM throughout.
As to `COc1ccc(-c2cc(-c3cc(C)ccc3O)[nH]c(=O)n2)cc1`, the TGI is above 100 µM with M19-MEL melanoma; above 100 µM in the experiment on HL-60(TB) leukemia; above 100 µM in the experiment with 786-0 renal; 88.6 µM in the experiment with RXF 393 renal; above 100 µM in the experiment with LXFL 529 NSCLC; above 100 µM with TK-10 renal. Further, the TGI in the experiment with SK-MEL-28 melanoma, in the experiment on K-562 leukemia and in the experiment on SF-539 CNS was above 100 µM each time.
Consider `COc1ccc(NC(=O)CC(=O)N2N=C(N(CCC#N)c3cccc(C)c3)CC2c2ccccc2)cc1` (configuration not stated), for which the TGI in the experiment with M19-MEL melanoma, with HL-60(TB) leukemia, in the experiment with 786-0 renal, in the experiment with RXF 393 renal, in the experiment on LXFL 529 NSCLC and with SK-MEL-28 melanoma was above 100 µM each time. Further, the TGI in the experiment on K-562 leukemia, with SK-MEL-5 melanoma and in the experiment on SF-539 CNS was above 100 µM in each case.
`COC1OC(COS(=O)(=O)c2ccc(C)cc2)C(O)C(OS(=O)(=O)c2ccc(C)cc2)C1OS(=O)(=O)c1ccc(C)cc1` (configuration not stated): the TGI with M19-MEL melanoma, with HL-60(TB) leukemia, in the experiment on 786-0 renal, in the experiment on RXF 393 renal, in the experiment on LXFL 529 NSCLC and in the experiment on SK-MEL-28 melanoma was above 100 µM throughout. Moreover, the TGI in the experiment on K-562 leukemia, in the experiment on SK-MEL-5 melanoma and in the experiment with SF-539 CNS was above 100 µM each time.
On to `NCCCNCCSSC/C=C\CSSCCNCCCN`, for which the TGI in the experiment with M19-MEL melanoma was above 100 µM; with HL-60(TB) leukemia, 46.4 µM and 39.1 µM; with 786-0 renal it was above 100 µM; in the experiment with RXF 393 renal, above 100 µM; in the experiment on LXFL 529 NSCLC it was > 100 µM and 88.4 µM; with TK-10 renal, above 100 µM. In addition, the TGI was above 100 µM in the experiment with SK-MEL-28 melanoma; 62.3 µM and 65.1 µM with K-562 leukemia; above 100 µM with SK-MEL-5 melanoma; above 100 µM in the experiment with SF-539 CNS. Moreover, the GI50 in the experiment on RXF 393 renal is 83.3 µM and 30.6 µM.
Turning to `CC(C(=O)O)/C(=C\c1ccc2c(c1)OCO2)C(=O)O` (configuration not stated), the TGI with M19-MEL melanoma was above 100 µM; in the experiment on HL-60(TB) leukemia it was 0.21 µM; in the experiment on 786-0 renal, above 100 µM; with RXF 393 renal it was above 100 µM; in the experiment on LXFL 529 NSCLC, above 100 µM; with TK-10 renal it was above 100 µM. For the same compound, the TGI with SK-MEL-28 melanoma, in the experiment with K-562 leukemia, with SK-MEL-5 melanoma and with SF-539 CNS was above 100 µM in each case.
For the compound `NC(=O)CCC(NC(=O)Cc1ccccc1)C(=O)O` (configuration not stated) (tested in a mixture with another compound), the TGI was above 8130 µM in the experiment on M19-MEL melanoma; above 8130 µM with HL-60(TB) leukemia; above 8130 µM with 786-0 renal; 2030 µM and > 8130 µM in the experiment with RXF 393 renal; above 8130 µM in the experiment with LXFL 529 NSCLC; above 8130 µM in the experiment with TK-10 renal. Further, the TGI in the experiment on SK-MEL-28 melanoma, with K-562 leukemia, in the experiment with SK-MEL-5 melanoma and in the experiment with SF-539 CNS was above 8130 µM throughout.
